These results are taken from patent US5698670A, “Aureobasidins” (priority 1993, dated 1997).

≈ marks a conversion by molar mass, not a printed value. Like-named read-outs stand apart in the source and are kept apart here. Numbered stars: 1 amine (or outer) side, 2 acyl side, 3 side chain; on linkers, the order of the positions; unused ones are H or OH. Square brackets hold non-standard residues; d marks the D form. Peptide text beside a SMILES is read from it. * marks the point of attachment. X1 = CC[C@@H](C)[C@@H](O[*:1])C(=O)[*:2]; NMeVal(β-OH) = CN[C@H](C(=O)O)C(C)(C)O; aIle = CC[C@@H](C)[C@H](N)C(=O)O; Cyclohexylmethyl = C1CCC(C*)CC1; Cha = N[C@@H](CC1CCCCC1)C(=O)O; dNMeV = CN[C@@H](C(=O)O)C(C)C; NMeV = CN[C@H](C(=O)O)C(C)C; dNMeS = CN[C@H](CO)C(=O)O; dNMeA = CN[C@H](C)C(=O)O; Bn = c1ccc(C*)cc1

For data set [1] the following is noted: amide bond, 27-membered ring, PyBroP/DIEA, CH2Cl2.
Data set [2] has as its system Candida albicans TIMM0136. Put plainly: MIC by agarose plate dilution method. Particulars: saburo-dextrose agarose culture, 30° C., 2 days. Format: cell-based. The protocol:
(§1) MIC was measured by agarose plate dilution method (cultivated at 30° C. for 2 days) using saburo-dextrose agarose culture (glucose 2 W/V %, polipeptone 1 W/V %, agarose 1.5 W/V %). Control was Aureobasidin A (AbA).

Data set [3] concerns Candida albicans TIMM0171. Put plainly: MIC by agarose plate dilution method. Format: cell-based. Particulars: saburo-dextrose agarose culture, 30° C., 2 days. The procedure: as §1
For data set [4], the system named is Candida glabrata TIMM1062. The data set can be described thus: MIC by agarose plate dilution method. Format: cell-based. As to conditions: saburo-dextrose agarose culture, 30° C., 2 days. The procedure: as §1
Data set [5] has as its system Candida kefyr TIMM0301. The data set can be described thus: MIC by agarose plate dilution method. Format: cell-based. Particulars: saburo-dextrose agarose culture, 30° C., 2 days. The procedure:
as §1

In data set [6] the test system is Aspergillus fumigatus TIMM2766. The data set is classed as cell-based. The procedure:
as §1

The test system of data set [7] is Cryptococcus neoformans TIMM0354. Format: cell-based. Particulars: for activity for Cryptococcus compared with Aureobasidin A: in words. The procedure: as §1
Setting [8] is: Aspergillus fumigatus TIMM2766, saburo-dextrose agarose culture, 30° C., 2 days.
The mark [9] stands for this setting: Cryptococcus neoformans TIMM0354, saburo-dextrose agarose culture, 30° C., 2 days.

Consider `CC[C@@H](C)[C@@H]1NC(=O)[C@@H]2CCCN2C(=O)[C@@H](C(C)C)N(C)C(=O)[C@H](Cc2ccccc2)NC(=O)[C@H](C(C)C)N(C)C(=O)[C@@H]([C@H](C)CC)OC(=O)[C@H](C(C)(C)O)N(C)C(=O)[C@H](CC(C)C)NC(=O)[C@H](C(C)C)N(C)C1=O`, for which the ring closure, isolated yield in data set [1] (from H-aIle-MeVal-Leu-βHOMeVal-dHmp-MeVal-Phe-dMeVal-Pro-OH, 1.0 mM, 25.0 °C) came to 35%.

Compound `CC[C@@H](C)[C@@H]1NC(=O)[C@@H]2CCCN2C(=O)[C@@H](C)N(C)C(=O)[C@H](CC2CCCCC2)NC(=O)[C@H](C(C)C)N(C)C(=O)[C@@H]([C@H](C)CC)OC(=O)[C@H](C(C)(C)O)N(C)C(=O)[C@H](CC(C)C)NC(=O)[C@H](C(C)C)N(C)C1=O` [Compound 3, cyclo(L -aIle-L -MeVal-L -Leu-L -βHOMeVal-D -Hmp-L -MeVal-L -Cha-D -MeAla-L -Pro)] (cyclo([aIle][NMeV]L[NMeVal(β-OH)][X1][NMeV][Cha][dNMeA]P)) returned a ring closure, isolated yield in data set [1] (from H-aIle-MeVal-Leu-βHOMeVal-dHmp-MeVal-Cha-dMeAla-Pro-OH, 1.0 mM, 25.0 °C) of 28.6%. The MIC in data set [2] was 0.0125 µg/mL (≈ 0.0121 µM); in data set [3], 0.025 µg/mL (≈ 0.0242 µM); in data set [4], 0.10 µg/mL (≈ 0.097 µM); in data set [5], 0.20 µg/mL (≈ 0.194 µM); in data set [6] (setting [8]), 3.12 µg/mL (≈ 3.03 µM); in data set [6] (TIMM2766), 1.56 to 25 µg/mL. For the same compound, the MIC in data set [7] (setting [9]) was 0.10 µg/mL (≈ 0.097 µM); in data set [7] (TIMM0354), 0.10 to 0.39 µg/mL. For the same compound, the “activity for Cryptococcus compared with Aureobasidin A” value in data set [7] is “stronger activity than Aureobasidin A”.

`CC[C@@H](C)[C@@H]1NC(=O)[C@@H]2CCCN2C(=O)[C@@H](C)N(C)C(=O)[C@H](Cc2ccc(F)cc2)NC(=O)[C@H](C(C)C)N(C)C(=O)[C@@H]([C@H](C)CC)OC(=O)[C@H](C(C)(C)O)N(C)C(=O)[C@H](CC(C)C)NC(=O)[C@H](C(C)C)N(C)C1=O` gave a ring closure, isolated yield in data set [1] (from H-aIle-MeVal-Leu-βHOMeVal-dHmp-MeVal-pFPhe-dMeAla-Pro-OH, 1.0 mM, 25.0 °C) of 29.8%.

Consider `CC[C@@H](C)[C@@H]1NC(=O)[C@@H]2CCCN2C(=O)[C@@H](C(C)C)N(C)C(=O)[C@H](CC2CCCCC2)NC(=O)[C@H](C(C)C)N(C)C(=O)[C@@H]([C@H](C)CC)OC(=O)[C@H](C(C)(C)O)N(C)C(=O)[C@H](CC(C)C)NC(=O)[C@H](C(C)C)N(C)C1=O` [Compound 8, cyclo(L -aIle-L -MeVal-L -Leu-L -βHOMeVal-D -Hmp-L -MeVal-L -Cha-D -MeVal-L -Pro)] (cyclo([aIle][NMeV]L[NMeVal(β-OH)][X1][NMeV][Cha][dNMeV]P)), for which the ring closure, isolated yield in data set [1] (from H-aIle-MeVal-Leu-βHOMeVal-dHmp-MeVal-Cha-dMeVal-Pro-OH, 1.0 mM) came out at 20.5%. The MIC in data set [2] is 0.10 µg/mL (≈ 0.0944 µM); in data set [3], 0.05 µg/mL (≈ 0.0472 µM); in data set [4] it was 0.78 µg/mL (≈ 0.736 µM); in data set [5], 0.78 µg/mL (≈ 0.736 µM); in data set [6] (setting [8]), greater than 25 µg/mL; in data set [7] (setting [9]) it was 0.39 µg/mL (≈ 0.368 µM). For the same compound, in data set [7] (TIMM0354), the MIC was in the range of 0.10 to 0.39 µg/mL.

In data set [1] (from H-aIle-MeVal-Leu-βHOMeVal-dHmp-MeVal-Tyr(c-C6H11-CH2)-dMeAla-Pro-OH, 1.0 mM), `CC[C@@H](C)[C@@H]1NC(=O)[C@@H]2CCCN2C(=O)[C@@H](C)N(C)C(=O)[C@H](Cc2ccc(OCC3CCCCC3)cc2)NC(=O)[C@H](C(C)C)N(C)C(=O)[C@@H]([C@H](C)CC)OC(=O)[C@H](C(C)(C)O)N(C)C(=O)[C@H](CC(C)C)NC(=O)[C@H](C(C)C)N(C)C1=O` [Compound 12, cyclo(L -aIle-L -MeVal-L -Leu-L -βHOMeVal-D -Hmp-L -MeVal-L -Tyr(c-C6 H11 --CH2 --)-D -MeAla-L -Pro)] (cyclo([aIle][NMeV]L[NMeVal(β-OH)][X1][NMeV]Y(Cyclohexylmethyl)[dNMeA]P)) gave a ring closure, isolated yield of 52.3%. Also, the minimal inhibitory concentration (MIC) in data set [2] is 0.10 µg/mL (≈ 0.0879 µM); in data set [3], 0.39 µg/mL (≈ 0.343 µM); in data set [4] it was 0.39 µg/mL (≈ 0.343 µM); in data set [5], 1.56 µg/mL (≈ 1.37 µM); in data set [6] (setting [8]), 1.56 µg/mL (≈ 1.37 µM); in data set [6] (TIMM2766) it was 1.56 to 25 µg/mL. In addition, the MIC in data set [7] (setting [9]) is 0.20 µg/mL (≈ 0.176 µM); in data set [7] (TIMM0354) it was 0.10 to 0.39 µg/mL. Also, in data set [7], the “activity for Cryptococcus compared with Aureobasidin A” value is on record as “stronger activity than Aureobasidin A”.

In the case of `CC[C@@H](C)[C@@H]1NC(=O)[C@@H]2CCCN2C(=O)[C@@H](C)N(C)C(=O)[C@H](COCc2ccccc2)NC(=O)[C@H](C(C)C)N(C)C(=O)[C@@H]([C@H](C)CC)OC(=O)[C@H](C(C)(C)O)N(C)C(=O)[C@H](CC(C)C)NC(=O)[C@H](C(C)C)N(C)C1=O` [Compound 7, cyclo(L -aIle-L -MeVal-L -Leu-L -βHOMeVal-D -Hmp-L -MeVal-L -Ser(Bzl)-D -MeAla-L -Pro)] (cyclo(L[NMeVal(β-OH)][X1][NMeV]S(Bn)[dNMeA]P[aIle][NMeV])), the ring closure, isolated yield in data set [1] (from H-aIle-MeVal-Leu-βHOMeVal-dHmp-MeVal-Ser(Bzl)-dMeAla-Pro-OH, 1.0 mM, 25.0 °C) stood at 45.2%. The compound also had an MIC in data set [7] (TIMM0354) of 0.10 to 0.39 µg/mL.

With `CC[C@@H](C)[C@@H]1NC(=O)[C@@H]2CCCN2C(=O)[C@@H](CO)N(C)C(=O)[C@H](CC2CCCCC2)NC(=O)[C@H](C(C)C)N(C)C(=O)[C@@H]([C@H](C)CC)OC(=O)[C@H](C(C)(C)O)N(C)C(=O)[C@H](CC(C)C)NC(=O)[C@H](C(C)C)N(C)C1=O` [Compound 9, cyclo(L -aIle-L -MeVal-L -Leu-L -βHOMeVal-D -Hmp-L -MeVal-L -Cha-D -MeSer-L -Pro)] (cyclo([aIle][NMeV]L[NMeVal(β-OH)][X1][NMeV][Cha][dNMeS]P)), the MIC in data set [2] was 0.20 µg/mL (≈ 0.191 µM); in data set [3], 0.20 µg/mL (≈ 0.191 µM); in data set [4] it was 0.78 µg/mL (≈ 0.745 µM); in data set [5] it was 0.78 µg/mL (≈ 0.745 µM); in data set [6] (setting [8]), greater than 25 µg/mL; in data set [7] (setting [9]), 0.20 µg/mL (≈ 0.191 µM). This compound also displayed an MIC in data set [7] (TIMM0354) of 0.10 to 0.39 µg/mL.

`CC[C@@H](C)[C@@H]1NC(=O)[C@@H]2CCCN2C(=O)[C@@H](COCc2ccccc2)N(C)C(=O)[C@H](CC2CCCCC2)NC(=O)[C@H](C(C)C)N(C)C(=O)[C@@H]([C@H](C)CC)OC(=O)[C@H](C(C)(C)O)N(C)C(=O)[C@H](CC(C)C)NC(=O)[C@H](C(C)C)N(C)C1=O` registered a ring closure, isolated yield in data set [1] (from H-aIle-MeVal-Leu-βHOMeVal-dHmp-MeVal-Cha-dMeSer(Bzl)-Pro-OH, 1.0 mM) of 34.3%.

As to `CC[C@@H](C)[C@@H]1NC(=O)[C@@H]2CCCN2C(=O)[C@@H](C)N(C)C(=O)[C@H](Cc2ccccc2)NC(=O)[C@H](C(C)C)N(C)C(=O)[C@@H]([C@H](C)CC)OC(=O)[C@H](C(C)(C)O)N(C)C(=O)[C@H](CC(C)C)NC(=O)[C@H](C(C)C)N(C)C1=O` [Compound 1, cyclo(L -aIle-L -MeVal-L -Leu-L -βHOMeVal-D -Hmp-L -MeVal-L -Phe-D -MeAla-L -Pro)] (cyclo([aIle][NMeV]L[NMeVal(β-OH)][X1][NMeV]F[dNMeA]P)), the ring closure, isolated yield in data set [1] (from H-aIle-MeVal-Leu-βHOMeVal-dHmp-MeVal-Phe-dMeAla-Pro-OH, 0.97 mM, 25.0 °C) was 55.5%. The MIC in data set [2] is 0.05 µg/mL (≈ 0.0488 µM); in data set [3], 0.05 µg/mL (≈ 0.0488 µM); in data set [4] it was 0.20 µg/mL (≈ 0.195 µM); in data set [5] it was 0.20 µg/mL (≈ 0.195 µM); in data set [7] (setting [9]) it was 3.12 µg/mL (≈ 3.04 µM).

On to `CC[C@@H](C)[C@@H]1NC(=O)[C@@H]2CCCN2C(=O)[C@@H](C)N(C)C(=O)[C@H](CC(C)C)NC(=O)[C@H](C(C)C)N(C)C(=O)[C@@H]([C@H](C)CC)OC(=O)[C@H](C(C)(C)O)N(C)C(=O)[C@H](CC(C)C)NC(=O)[C@H](C(C)C)N(C)C1=O` [Compound 5, cyclo(L -aIle-L -MeVal-L -Leu-L -βHOMeVal-D -Hmp-L -MeVal-L -Leu-D -MeAla-L -Pro)] (cyclo(L[dNMeA]P[aIle][NMeV]L[NMeVal(β-OH)][X1][NMeV])), for which the ring closure, isolated yield in data set [1] (from H-aIle-MeVal-Leu-βHOMeVal-dHmp-MeVal-Leu-dMeAla-Pro-OH, 1.0 mM, 25.0 °C) was 39.4%. The compound also displayed a minimal inhibitory concentration (MIC) in data set [7] (TIMM0354) of 0.10 to 0.39 µg/mL.

For the compound `CC[C@@H](C)[C@@H]1NC(=O)[C@@H]2CCCN2C(=O)[C@@H](C)N(C)C(=O)[C@H](Cc2ccc(OCc3ccccc3)cc2)NC(=O)[C@H](C(C)C)N(C)C(=O)[C@@H]([C@H](C)CC)OC(=O)[C@H](C(C)(C)O)N(C)C(=O)[C@H](CC(C)C)NC(=O)[C@H](C(C)C)N(C)C1=O`, the ring closure, isolated yield in data set [1] (from H-aIle-MeVal-Leu-βHOMeVal-dHmp-MeVal-Tyr(Bzl)-dMeAla-Pro-OH, 1.0 mM) is 41.5%.

The MIC is the smallest concentration in the dilution series that meets the test's criterion for growth inhibition. Read a low MIC as greater potency.
